In general, clearance refers to a measure of how efficiently the substance is removed, as volume per time. What is called bioavailability is dose-corrected exposure relative to a reference, in per cent.

One compound from US10100030B2 (Kissei Pharmaceutical Co., Ltd., priority 2013, dated 2018) can be followed below.

Data set [1] in a line: Ferret pharmacokinetic test. It is filed as in vivo. The settings on record: plasma, male ferret. How it is done: Ferret Pharmacokinetic Test
The test compound solution was prepared by dissolving the test compound in a vehicle (50% N,N-dimethylformamide (Wako Pure Chemical Industries), 30% propylene glycol (Wako Pure Chemical Industries) and 4% 2-hydroxypropyl-β-cyclodextrin (Wako Pure Chemical Industries)). Under anesthesia with isoflurane 0.3 mg/kg of the test compound was intravenously administered to a male ferret (Marshall BioResources Japan) from the jugular vein. In the case of oral administration, 1 mg/kg of the test compound was orally administered to an awake animal. After the administration of the test compound, blood samples were taken sequentially from the brachial cephalic vein, and the concentrations of the test compound in the plasma were measured by a quantitative analysis using liquid chromatography-mass spectrometry (LC/MS).
In the tables, Ex. No. means the Example number. CLtot and Vss are the total body clearance and the steady-state volume of distribution, based on the plasma concentrations in the case of intravenous administration, respectively, Cmax, AUC and BA are the maximum plasma test compound concentration, the area under the plasma test compound concentration-time curve and the bioavailability, in the case of oral administration, respectively, […]

Data set [2] concerns cisplatin-induced acute and delayed emetic response. The experiment in a line: Effect on cisplatin-induced acute and delayed emetic response. It is filed as in vivo, ferret. Here is the method: No 1, 1 mg/kg, po) in the acute phase, and a value of control group, the group intravenously administered with 3 mg/kg of the compound of Example 1 (Ex. […] No 1, 1 mg/kg, po) in the delayed phase from the left respectively. The vertical axes show the number of retching and vomiting ([…]) (the mean+standard error of 5 examples of control group, the mean+standard error of 5 examples of the group intravenously administered, and the mean+standard error of 5 examples of the group orally administered). Effect on Cisplatin-induced Acute and Delayed Emetic Response The test compound solution was prepared by dissolving the test compound in a vehicle (a mixture of 50% N,N-dimethylformamide (Wako Pure Chemical Industries), 30% propylene glycol (Wako Pure Chemical Industries) and 4% 2-hydroxypropyl-β-cyclodextrin (Wako Pure Chemical Industries)). The vehicle only was administered to the control group. Under anesthesia with isoflurane, 3 mg/kg of the test compound was intravenously administered to a male ferret (Marshall BioResources Japan) from the jugular vein. Cisplatin, which was heated to 40-50° C., was intraperitoneally administered at 5 mg/kg one hour after the drug administration. […] The solvent only was administered to the control group. The test compound was orally administered to a male ferret (Marshall BioResources Japan). The oral administration was performed every 24 hours at 1 mg/kg three times in total. Cisplatin, which was heated to 40-50° C., was intraperitoneally administered at 5 mg/kg one hour after the first oral administration of the test compound.

The target in another data set is human NK1 receptor (Homo sapiens (Human), UniProt P25103). The experiment in a line: Affinity for human NK1 receptor (125I-substance P receptor binding test). The settings on record: membrane fraction of human NK1 receptor-expressing 293T cells; read-out: IC50 (concentration required for 50% inhibition of 125I-substance P binding). Here is the method:
Affinity for Human NK1 Receptor
(3) Measurement of Binding Affinity to Human NK1 Receptor
(3-1) Preparation of Membrane Fraction from Human NK1 Receptor-expressing Cells
Human NK1 receptor-expressing cells were prepared in a 175 cm^2 culture flask (Nippon Becton Dickinson). The formation of a complex of the human NK1 receptor expression plasmid and Lipofectamine 2000 was performed by calculating the culture area ratio and increasing the scale of the method described in the above 2-4 by the ratio. The human NK1 receptor-expressing cells were collected in a buffer solution for the membrane fraction preparation (50 mM Tris (Wako Pure Chemical). 120 mM sodium chloride (Wako Pure Chemical Industries), 5 mM potassium chloride (Wako Pure Chemical Industries), 1 mM ethylenediaminetetraacetic acid (Sigma), 0.002 mg/mL chymostatin (Peptide Institute), 0.04 mg/ bacitracin (Wako Pure Chemical Industries), 0.005 mg/mL phosphoramidon (Peptide Institute) and 0.5 mM phenylmethylsulfonyl fluoride (Wako Pure Chemical Industries), pH7.4) and centrifuged at 1,880 g for 10 minutes, and the cell sediment was suspended in the buffer solution for the membrane fraction preparation. After freezing and thawing the cells once, the cells were homogenized using a Dounce-type homogenizer (cooled on ice, 1000 rpm, 20 times). The homogenized cell suspension was centrifuged at 20,000 rpm for 10 minutes, and the supernatant was removed to obtain cell sediment. The cell sediment was suspended again in the buffer solution for the membrane fraction preparation and homogenized using a Dounce-type homogenizer (cooled on ice, 1000 rpm, 30 times). The cell suspension was centrifuged at 20,000 rpm for 10 minutes, and the supernatant was removed to obtain cell sediment. The same homogenization and centrifugation were repeated again, and final cell sediment was obtained. The final cell sediment was suspended in a buffer solution for the receptor binding test (50 mM Tris (Wako Pure Chemical Industries), 3 mM manganese chloride (Wako Pure Chemical Industries), 0.002 mg/mL chymostatin (Peptide Institute), 0.04 mg/bacitracin (Wako Pure Chemical Industries) and 0.02% bovine serum albumin (Sigma), pH 7.4), and the protein concentration was measured using BCA Protein Assay Kit (Pierce).
(3-2) Receptor Binding Test
The buffer solution for the receptor binding test was dispensed to the wells of a 96-well assay plate (Greiner) at 22.5 μL/well. DMSO solutions of a test compound, which were prepared at an 80-time higher concentration using 100% dimethyl sulfoxide (DMSO), were added to the wells at 2.5 μL/well (final concentrations of 1 nM to 100 nM), and the solutions were mixed. As a radiolabeled ligand, ^125I-substance P (Substance P, [^125I]Tyr^8-, PerkinElmer) was used. ^125I-substance P was diluted with the buffer solution for the receptor binding test to a concentration resulting in […] and added to the 96-well assay plate, and the solutions were mixed. The membrane fraction prepared from the human NK1 receptor-expressing cells was diluted with the buffer solution for the receptor binding test to a concentration resulting in 8 to 10 μg/well, suspended until the suspension became in such a homogenous state that the suspension could flow through as 27G injection needle smoothly and then added to the 96-well assay plate at 150 μL/well. Then, the plate was incubated at room temperature for 60 minutes while shaking the plate. The reaction solutions were suction-filtered. through a multiscreen 96-well filter plate (Millipore) which had been pre-treated with 0.3% polyethyleneimine, and the reaction was terminated by washing with a washing solution (50 mM Tris and 0.02% bovine serum albumin, pH 7.4) four times. The bottom of the microplate was dried at 60° C., and then 100 μL/well of MicroScint 20 (PerkinElmer) was dispensed to the wells. The top of the plate was sealed with TopSeal A (PerkinElmer), and the plate was shaken for 5 to 10 minutes. […]

Chain of human NK1 receptor (P25103 whole entry): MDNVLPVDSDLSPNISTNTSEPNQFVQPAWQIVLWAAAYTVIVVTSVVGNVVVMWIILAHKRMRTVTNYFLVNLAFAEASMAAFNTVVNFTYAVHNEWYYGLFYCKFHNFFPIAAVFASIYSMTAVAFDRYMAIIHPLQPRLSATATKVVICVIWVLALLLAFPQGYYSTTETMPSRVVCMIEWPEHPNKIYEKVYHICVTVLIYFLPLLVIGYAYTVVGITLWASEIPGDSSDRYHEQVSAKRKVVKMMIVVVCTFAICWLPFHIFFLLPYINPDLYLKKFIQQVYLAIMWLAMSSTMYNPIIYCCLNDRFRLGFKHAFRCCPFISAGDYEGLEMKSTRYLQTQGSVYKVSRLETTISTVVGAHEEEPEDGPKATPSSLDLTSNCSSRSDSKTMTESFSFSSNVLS

In the case of `Cc1cc(F)ccc1-c1cc(N2CCC(CC(=O)O)CC2)ncc1N(C)C(=O)C(C)(C)c1cc(C(F)(F)F)cc(C(F)(F)F)c1` [Example 1], the clearance in data set [1] (0.3 mg/kg intravenous, read-out: CLtot (total body clearance)) was determined as 0.75 mL/min/kg. Moreover, in data set [1] (0.3 mg/kg intravenous, read-out: Vss (steady-state volume of distribution)), the Vd is 0.336 L/kg. The bioavailability in data set [1] (1 mg/kg oral, read-out: BA (bioavailability)) came to 61%. In addition, the Cmax in data set [1] (1 mg/kg oral, read-out: Cmax (maximum plasma test compound concentration)) was 1270 ng/mL. For the same compound, the “number of retching and vomiting” value is “inhibition of the number of retching and vomiting was observed” in data set [2] (1 mg/kg po every 24 hours three times, acute phase (up to 24 hours after cisplatin)); “inhibition of the number of retching and vomiting was observed” in data set [2] (1 mg/kg po every 24 hours three times, delayed phase (24 to 72 hours after cisplatin)); “inhibition of the number of retching and vomiting was observed” in data set [2] (3 mg/kg iv, acute phase (up to 24 hours after cisplatin)); “inhibition of the number of retching and vomiting was observed” in data set [2] (3 mg/kg iv, delayed phase (24 to 72 hours after cisplatin)). Further, at human NK1 receptor, the IC50 is 2.11 nM.
